Experimental data as given in the supplement of paper PMC5908809.

Columns and labels:
SNK-6 (IL-2 2.5 ng/mL) [1] = assay: percent inhibition of viability; higher = more inhibition; conditions: 72 h
YT (IL-2 2.5 ng/mL) [2] = assay: as above; conditions: 72 h
KAI3 (IL-2 2.5 ng/mL) [3] = assay: as above; conditions: 72 h
[4] = system: normal primary NK cells, pool 1 (3 donors), resting (IL-2 0 ng/mL); assay: as above; conditions: 72 h
KHYG-1 (IL-2 2.5 ng/mL) [5] = assay: as above; conditions: 72 h
NKL (IL-2 2.5 ng/mL) [6] = assay: as above; conditions: 72 h
NK-YS (IL-2 2.5 ng/mL) [7] = assay: as above; conditions: 72 h
[8] = system: normal primary NK cells, pool 3 (3 donors) (IL-2 2.5 ng/mL); assay: as above; conditions: 72 h
DERL-7 (IL-2 2.5 ng/mL) [9] = assay: as above; conditions: 72 h
IMC-1 (IL-2 20 ng/mL) [10] = assay: as above; conditions: 72 h
[11] = system: normal primary NK cells, pool 1 (3 donors) (IL-2 2.5 ng/mL); assay: as above; conditions: 72 h
NK-92 (IL-2 2.5 ng/mL) [12] = assay: as above; conditions: 72 h
[13] = system: normal primary NK cells, pool 2 (3 donors) (IL-2 2.5 ng/mL); assay: as above; conditions: 72 h
[14] = system: normal NK cells expanded with K562-aAPC; assay: drug sensitivity score (DSS) (DSS units); higher = more sensitive; extreme values may be limits of the assay; conditions: 72 h; IL-2 2.5 ng/mL
Procedure: (§1)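 Drug sensitivity and resistance testing on K562-aAPC-expanded normal NK cells: 5 concentrations (10-fold steps over a 10,000-fold range), 72 h at 37 °C, viability by CellTiter-Glo normalised to DMSO and benzethonium chloride controls; DSS from the fitted curve.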

SNK-6 (IL-2 2.5 ng/mL) [15] = assay: as above; conditions: 72 h
YT (IL-2 2.5 ng/mL) [16] = assay: as above; conditions: 72 h
KAI3 (IL-2 2.5 ng/mL) [17] = assay: as above; conditions: 72 h
[18] = system: normal primary NK cells, pool 1 (3 donors), resting (IL-2 0 ng/mL); assay: as above; conditions: 72 h
KHYG-1 (IL-2 2.5 ng/mL) [19] = assay: as above; conditions: 72 h
NKL (IL-2 2.5 ng/mL) [20] = assay: as above; conditions: 72 h
NK-YS (IL-2 2.5 ng/mL) [21] = assay: as above; conditions: 72 h
[22] = system: normal primary NK cells, pool 3 (3 donors) (IL-2 2.5 ng/mL); assay: as above; conditions: 72 h
DERL-7 (IL-2 2.5 ng/mL) [23] = assay: as above; conditions: 72 h
IMC-1 (IL-2 20 ng/mL) [24] = assay: as above; conditions: 72 h
[25] = system: normal primary NK cells, pool 1 (3 donors) (IL-2 2.5 ng/mL); assay: as above; conditions: 72 h
NK-92 (IL-2 2.5 ng/mL) [26] = assay: as above; conditions: 72 h
[27] = system: normal primary NK cells, pool 2 (3 donors) (IL-2 2.5 ng/mL); assay: as above; conditions: 72 h
[28] = system: normal NK cells expanded with K562-aAPC; assay: percent inhibition of viability; higher = more inhibition; conditions: 72 h, IL-2 2.5 ng/mL
Procedure: as §1

Cc1ccc(-n2nc(C(C)(C)C)cc2NC(=O)Nc2ccc(OCCN3CCOCC3)c3ccccc23)cc1 [Doramapimod] (max concentration tested 10000 nM)
percent inhibition of viability [%]
Conditions | 1 nM | 10 nM | 100 nM | 1000 nM | 10000 nM
DERL-7 (IL-2 2.5 ng/mL) [9] | -1.24 | 0.45 | -6.35 | 0.4 | 31.3
IMC-1 (IL-2 20 ng/mL) [10] | -7.13 | -0.74 | 1.31 | 8.39 | 27.3
KAI3 (IL-2 2.5 ng/mL) [3] | -7.62 | 9.59 | 18.9 | 43.5 | 68
KHYG-1 (IL-2 2.5 ng/mL) [5] | -0.62 | 4.98 | 0.58 | 7.1 | 56.5
NK-92 (IL-2 2.5 ng/mL) [12] | 13 | 11 | 8.99 | 11.7 | 71.5
NK-YS (IL-2 2.5 ng/mL) [7] | -8.49 | 3.68 | 5.33 | 24.4 | 63.3
NKL (IL-2 2.5 ng/mL) [6] | -7.33 | -0.1 | 12 | 80.7 | 98.6
SNK-6 (IL-2 2.5 ng/mL) [1] | -8.06 | 6.04 | -5.96 | -39.3 | 6.22
YT (IL-2 2.5 ng/mL) [2] | 1.11 | 9.26 | 7.83 | 16.7 | 45
[4] | 0.09 | -4.02 | -3.55 | 3.17 | 94.7
[8] | -11.6 | -1.56 | 4.57 | 2.15 | 85.2
[11] | 2.74 | -0.9 | -0.42 | -10.6 | 91.3
[13] | -9.43 | -4.09 | 6.14 | -0.89 | 85.1
[28] | -6.83 | -0.74 | -1.74 | 16.5 | 52.8

Conditions | drug sensitivity score
DERL-7 (IL-2 2.5 ng/mL) [23] | 1.44
IMC-1 (IL-2 20 ng/mL) [24] | 2.23
KAI3 (IL-2 2.5 ng/mL) [17] | 10.7
KHYG-1 (IL-2 2.5 ng/mL) [19] | 4.24
NK-92 (IL-2 2.5 ng/mL) [26] | 5.9
NK-YS (IL-2 2.5 ng/mL) [21] | 6.27
NKL (IL-2 2.5 ng/mL) [20] | 16.4
SNK-6 (IL-2 2.5 ng/mL) [15] | 0
YT (IL-2 2.5 ng/mL) [16] | 3.98
[14] | 5.25
[18] | 5.69
[22] | 5.02
[25] | 4.39
[27] | 4.66

C[C@H](Nc1ncnc2nc[nH]c12)c1cc2cccc(Cl)c2c(=O)n1-c1ccccc1 [Duvelisib] (max concentration tested 500 nM)
percent inhibition of viability [%]
Conditions | 0.05 nM | 0.5 nM | 5 nM | 50 nM | 500 nM
DERL-7 (IL-2 2.5 ng/mL) [9] | -0.14 | 9.15 | 10.2 | 25.2 | 56.5
IMC-1 (IL-2 20 ng/mL) [10] | 0.88 | -0.84 | -0.96 | -0.33 | 6.98
KAI3 (IL-2 2.5 ng/mL) [3] | -4.68 | 0.86 | 7.47 | 8.25 | 24.3
KHYG-1 (IL-2 2.5 ng/mL) [5] | 1.1 | 3.56 | 6.06 | 5.02 | 18.1
NK-92 (IL-2 2.5 ng/mL) [12] | -9.06 | -4.46 | 22.4 | 26.1 | 42.3
NK-YS (IL-2 2.5 ng/mL) [7] | -2.69 | -4.82 | 0.82 | -1.23 | 13
NKL (IL-2 2.5 ng/mL) [6] | -10.5 | 7.21 | 0.54 | 24.6 | 17.3
SNK-6 (IL-2 2.5 ng/mL) [1] | -0.58 | 4.35 | 2.29 | 9.46 | 32.8
YT (IL-2 2.5 ng/mL) [2] | 0.13 | 2.78 | 3.52 | 2.82 | 12.4
[4] | 0.72 | -3.61 | 2.62 | -2.38 | 3.26
[8] | -13.6 | -1.02 | -2.45 | -0.85 | 21.8
[11] | -0.52 | -4.76 | 3.49 | 6.72 | 18.7
[13] | -6.04 | 4.46 | 6.08 | 11.3 | 26.1
[28] | -2.59 | 4.75 | 5.15 | 19.8 | 45.7

Conditions | drug sensitivity score
DERL-7 (IL-2 2.5 ng/mL) [23] | 6.16
IMC-1 (IL-2 20 ng/mL) [24] | 0
KAI3 (IL-2 2.5 ng/mL) [17] | 1.4
KHYG-1 (IL-2 2.5 ng/mL) [19] | 0.45
NK-92 (IL-2 2.5 ng/mL) [26] | 7.08
NK-YS (IL-2 2.5 ng/mL) [21] | 0.07
NKL (IL-2 2.5 ng/mL) [20] | 3.86
SNK-6 (IL-2 2.5 ng/mL) [15] | 2.8
YT (IL-2 2.5 ng/mL) [16] | 0.15
[14] | 4.43
[18] | 0
[22] | 0.66
[25] | 0.83
[27] | 1.9

COC(=O)N[C@@H](C)CNc1nccc(-c2cn(C(C)C)nc2-c2cc(Cl)cc(NS(C)(=O)=O)c2F)n1 [Encorafenib] (max concentration tested 1000 nM)
percent inhibition of viability [%]
Conditions | 0.1 nM | 1 nM | 10 nM | 100 nM | 1000 nM
DERL-7 (IL-2 2.5 ng/mL) [9] | -4.45 | 1.39 | -5.31 | -20.4 | 2.89
IMC-1 (IL-2 20 ng/mL) [10] | -3.38 | -1.85 | -0.96 | 1.07 | 11.3
KAI3 (IL-2 2.5 ng/mL) [3] | -3.35 | -4.73 | -1.44 | -5.19 | 35.6
KHYG-1 (IL-2 2.5 ng/mL) [5] | 1.4 | 3.41 | 40.8 | 96.3 | 36
NK-92 (IL-2 2.5 ng/mL) [12] | 3.73 | -5.79 | 17.9 | 6.05 | 10.7
NK-YS (IL-2 2.5 ng/mL) [7] | 0.75 | 0.97 | 2.64 | 4.64 | 15.7
NKL (IL-2 2.5 ng/mL) [6] | -6.88 | -1.53 | -12.4 | -13 | 2.6
SNK-6 (IL-2 2.5 ng/mL) [1] | -4.51 | -10 | 13.8 | 2.67 | 3.42
YT (IL-2 2.5 ng/mL) [2] | 4.02 | 1.12 | 4.21 | 0.09 | 19.3
[4] | 6.42 | -18.3 | -10.7 | -27.7 | 1.26
[8] | -8.13 | -6.38 | -2.7 | -12.9 | -4.56
[11] | -4.01 | -8.97 | -7.94 | -18.4 | -8.33
[13] | -12.3 | -6.1 | -1.97 | -5.14 | -1.61
[28] | -0.52 | -2.88 | -3.45 | 0.31 | 8.45

Conditions | drug sensitivity score
DERL-7 (IL-2 2.5 ng/mL) [23] | 0
IMC-1 (IL-2 20 ng/mL) [24] | 0.04
KAI3 (IL-2 2.5 ng/mL) [17] | 1.37
KHYG-1 (IL-2 2.5 ng/mL) [19] | 16.3
NK-92 (IL-2 2.5 ng/mL) [26] | 0.17
NK-YS (IL-2 2.5 ng/mL) [21] | 0.52
NKL (IL-2 2.5 ng/mL) [20] | 0
SNK-6 (IL-2 2.5 ng/mL) [15] | 0
YT (IL-2 2.5 ng/mL) [16] | 0.55
[14] | 0
[18] | 0
[22] | 0
[25] | 0
[27] | 0

Cn1cc(C2=C(c3cn(C4CCN(Cc5ccccn5)CC4)c4ccccc34)C(=O)NC2=O)c2ccccc21 [Enzastaurin] (max concentration tested 10000 nM)
percent inhibition of viability [%]
Conditions | 1 nM | 10 nM | 100 nM | 1000 nM | 10000 nM
DERL-7 (IL-2 2.5 ng/mL) [9] | 1.51 | -3.14 | -1.37 | -1.66 | 38.9
IMC-1 (IL-2 20 ng/mL) [10] | -6.89 | 3.57 | 0.18 | 12 | 33.1
KAI3 (IL-2 2.5 ng/mL) [3] | -2.12 | 1.12 | -3.1 | -5.65 | 1.6
KHYG-1 (IL-2 2.5 ng/mL) [5] | 0.22 | 1.8 | 5.25 | 15.6 | 19
NK-92 (IL-2 2.5 ng/mL) [12] | 5.42 | 5.65 | -7.08 | -10.9 | 14.2
NK-YS (IL-2 2.5 ng/mL) [7] | 0.58 | 2.87 | 5.54 | 3.28 | 8.57
NKL (IL-2 2.5 ng/mL) [6] | -10.8 | -1.53 | 6.99 | 9.21 | 4.11
SNK-6 (IL-2 2.5 ng/mL) [1] | -2.07 | -1.57 | 11 | -2.69 | 14.5
YT (IL-2 2.5 ng/mL) [2] | 0.21 | 3.25 | 5.09 | 4.05 | 16.4
[4] | 3.14 | -9.37 | -6.91 | -38.3 | -57.7
[8] | -14.8 | -5.85 | 0.91 | -0.47 | 24.4
[11] | 2.52 | -11.7 | -6.73 | -14.6 | -7.58
[13] | -9.8 | 0.84 | 10.8 | -7.31 | 23.3
[28] | -2.11 | 0.83 | 0.77 | 6.44 | 4.35

Conditions | drug sensitivity score
DERL-7 (IL-2 2.5 ng/mL) [23] | 1.77
IMC-1 (IL-2 20 ng/mL) [24] | 3.17
KAI3 (IL-2 2.5 ng/mL) [17] | 0
KHYG-1 (IL-2 2.5 ng/mL) [19] | 2
NK-92 (IL-2 2.5 ng/mL) [26] | 0.06
NK-YS (IL-2 2.5 ng/mL) [21] | 0
NKL (IL-2 2.5 ng/mL) [20] | 0
SNK-6 (IL-2 2.5 ng/mL) [15] | 0.12
YT (IL-2 2.5 ng/mL) [16] | 0.24
[14] | 0
[18] | 0
[22] | 0.87
[25] | 0
[27] | 0.55
